# Key:
# fish = assay: Toxicity to fish compared with other pyrethroids
# Source text: This invention is the culmination of the above findings.
# pests = assay: Pesticidal effectiveness, overall; conditions: in vivo
# Source text: The pesticidal activity of the compounds according to this invention against green rice leafhoppers (Nephotettix cincticeps Uhler), rice stem borers (Chilo suppressalis Walker), tobacco cutworms (Prodenia litura […]) and houseflies (Musca domestica), as examples of the pests against which the same compounds are considered effective, the acute toxicity data on the same compounds as determined in rat by the oral route and the median tolerance limit (TLm) data on the same compounds as determined in killifish (Orizias latipes) and guppies (Lebistes reticulatus) are shown in Table 1 alongside the corresponding values for various control compounds. The pesticidal effects were determined by the procedures set forth in Test Examples 1 through 4, while the acute toxicity to rat was determined by the procedure set forth in Test Example 9 and the toxicity to fish was determined by the procedures set forth in Test Examples 6 and 7, all those Examples appearing hereinafter.
# crop plants = assay: Phytotoxicity test; type: in vivo; conditions: 2,000 ppm solution on leaves, after 10 days
# Source text: A 2,000 ppm solution of each of the cis- and trans-isomers and a 50:50 mixture of cis- and trans-isomers of Compound (1) and of Compound (2), and a 50:50 mixture of the cis- and trans-isomers of Compound (B) and Compound (E) was applied to the leaves of the following crop plants.
# After 10 days, the crop plants were examined for their phytotoxicities.
# [1] = system: killifish (Orizias latipes); assay: Fish toxicity test with killifish; type: in vivo; conditions: Table 1; 48 hrs.
# Method in brief: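 Test compound dispensed from acetone solution into water at set concentrations; ten aerated-water killifish (~0.25 g, ~2.5 cm) held at 25±1° C. Deaths scored after 48 hours; TLm (median tolerance limit, ppm) determined.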
# carp (Cyprinus carpio L) = assay: Fish toxicity test with carp; type: in vivo; conditions: 48 hrs., 21±1° C.; 2880 min
# Method in brief: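 Compound in acetone with Tween-20 dispersed in 50 L aerated water at a set concentration; five carp (about 6 g, 6 cm) exposed at 21±1° C. Deaths checked after 48 h, and TLm (median tolerance limit, ppm) determined.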
smiles,measurement,setting,value
C#CC(OC(=O)[C@@H]1[C@@H](C=C(Cl)Cl)C1(C)C)c1cccc(Oc2ccc(Cl)cc2)c1 (relative stereo) [Compound (2) trans-],toxicity to fish in words,fish,by far low in toxicity to fish
same,pesticidal effectiveness in words,pests,outstanding in pesticidal activity against various pests
"CC1(C)C(C=C(Cl)Cl)C1C(=O)OCc1cccc(Oc2ccccc2)c1 (centres unmarked) [Compound (B), Permethrin]",phytotoxicity,crop plants,did not cause any injury to each one of the crop plants
"C#CC(OC(=O)C1C(C=C(Cl)Cl)C1(C)C)c1cccc(Oc2ccc(Cl)cc2)c1 (stereo not drawn) [Compound (2) cis-/trans- = 50:50, 3-(4-chlorophenoxy)-α-ethynylbenzyl 2,2-dimethyl-3-(2,2-dichlorovinyl)cyclopropanecarboxylate]","Toxicity to fish TLm, killifish",[1],> 10 ppm
same,"TLm, Carp (48 hrs.)",carp (Cyprinus carpio L),2.8 ppm

# Reference: patent publication US4389412A, “Substituted cyclopropanecarboxylic acid esters and pesticidal compositions containing the same as active ingredient” (priority 1979, dated 1983)
